In PubChem BioAssay (NCI):
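Tested at 5 concentrations; 48 h exposure; 96-well plates; endpoints linearly interpolated, else capped at highest concentration. TGI: total growth inhibition.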

Columns and labels:
Test in all cases: inhibition of tumour cell growth, NCI panel, 48 h
DMS 114 small cell lung = test system: DMS 114 small cell lung
LOX IMVI melanoma = test system: LOX IMVI melanoma
NCI-H460 lung = test system: NCI-H460 lung
DMS 273 small cell lung = test system: DMS 273 small cell lung
LXFL 529 NSCLC = test system: LXFL 529 NSCLC
DLD-1 colon = test system: DLD-1 colon
SNB-78 CNS = test system: SNB-78 CNS
SK-MEL-28 melanoma = test system: SK-MEL-28 melanoma
KM20L2 colon = test system: KM20L2 colon
HOP-18 NSCLC = test system: HOP-18 NSCLC
K-562 leukemia = test system: K-562 leukemia
MDA-MB-435 = test system: MDA-MB-435
M19-MEL melanoma = test system: M19-MEL melanoma
XF 498 CNS = test system: XF 498 CNS

Row | Structure (SMILES) | TGI (DMS 114 small cell lung) | TGI (LOX IMVI melanoma) | TGI (NCI-H460 lung) | TGI (DMS 273 small cell lung) | TGI (LXFL 529 NSCLC) | TGI (DLD-1 colon) | TGI (SNB-78 CNS) | TGI (SK-MEL-28 melanoma) | TGI (KM20L2 colon) | TGI (HOP-18 NSCLC) | TGI (K-562 leukemia) | TGI (MDA-MB-435) | TGI (M19-MEL melanoma) | TGI (XF 498 CNS)
1 | C\C=C/C=C/C=C/C(=O)O | > 100 µM | > 100 µM | > 100 µM | > 100 µM | > 100 µM | > 100 µM | > 100 µM | > 100 µM | > 100 µM | > 100 µM | > 100 µM |  |  | 
2 | COc1ccc(/C=C2\Sc3nnc(C)n3N=C2c2cc(F)c(Cl)cc2Cl)cc1OC |  | 31.4 µM | 53.1 µM |  |  |  |  | 49.2 µM |  |  | 19.5 µM | 23.2 µM |  | 
3 | NNC(=O)Cc1cccnc1 |  | > 100 µM | > 100 µM |  |  |  |  | > 100 µM |  |  | > 100 µM | > 100 µM |  | 
4 | CC(=O)c1cc2c(s1)C(=O)c1scc(C(C)=O)c1C2=O |  | 0.224 µM | 1.27 µM |  |  |  |  | 1.59 µM |  |  | 3.54 µM | 0.496 µM |  | 
5 | O=C(O)CS(=O)c1ccc2c3c(cccc13)C(=O)c1ccccc1-2 (centres undefined) |  | > 100 µM | > 100 µM |  |  |  |  | > 100 µM |  |  | > 100 µM | > 100 µM |  | 
6 | CC(=O)N1CC(C)(C)c2c1cc(C)c(O)c2C |  | > 100 µM | > 100 µM |  |  |  |  | > 100 µM |  |  | > 100 µM | > 100 µM |  | 
7 | COc1cc(CCNC2=CC(=O)c3cccnc3C2=O)ccc1O |  | 1.41 µM | 2.65 µM |  |  |  |  | 2.56 µM |  |  | 2.15 µM | 0.317 µM |  | 
8 | CC(=O)OC(CC(C)C)P1(=O)N(CC(C)(C)C)[C@@H]2CCCC[C@H]2N1CC(C)(C)C (some centres undefined) |  | 25 µM | 22 µM |  |  |  |  | 28.6 µM |  |  | 23.9 µM | 25.3 µM |  | 
9 | O=C(O)CCC(C(=O)O)N1C(=O)c2ccccc2C1=O (centres undefined) |  | > 100 µM | > 100 µM |  |  |  |  | > 100 µM |  |  | > 100 µM | > 100 µM |  | 
10 | O=C(Nc1ccc(Cl)cc1)c1cccc([N+](=O)[O-])c1O | 14.8 µM | > 100 µM | > 53.5 µM | 23.3 µM | 39.8 µM | > 100 µM | > 37.5 µM | 39.6 µM | 98.5 µM | > 100 µM | 24.2 µM |  | 9.07 µM | 8.31 µM
11 | Cc1cccc(/C=N/NC(=S)N2CCCCCC2)n1 |  | 17 µM | 1.18 µM |  |  |  |  | > 100 µM |  |  | > 100 µM | 38.9 µM |  | 
